From ChEMBL document CHEMBL1201862, “PubChem BioAssay data set” (2004) come the findings set out here.

The target in assay [1] is Mitochondrial peptide methionine sulfoxide reductase (Bos taurus, UniProt P54149). The format is functional.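 Also: absorbance read-out, biochemical high-throughput dose-response screen for MsrA inhibitors, confirmatory; recombinant bovine MsrA coupled to E. coli TrxB with NADPH and selenocystamine; potency is for inhibitors of MsrA activity on DMSO substrate.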
For assay [2], the target named is T1, Heat shock factor protein 1 (Mus musculus, UniProt P38532).
T1 sequence (P38532 whole entry): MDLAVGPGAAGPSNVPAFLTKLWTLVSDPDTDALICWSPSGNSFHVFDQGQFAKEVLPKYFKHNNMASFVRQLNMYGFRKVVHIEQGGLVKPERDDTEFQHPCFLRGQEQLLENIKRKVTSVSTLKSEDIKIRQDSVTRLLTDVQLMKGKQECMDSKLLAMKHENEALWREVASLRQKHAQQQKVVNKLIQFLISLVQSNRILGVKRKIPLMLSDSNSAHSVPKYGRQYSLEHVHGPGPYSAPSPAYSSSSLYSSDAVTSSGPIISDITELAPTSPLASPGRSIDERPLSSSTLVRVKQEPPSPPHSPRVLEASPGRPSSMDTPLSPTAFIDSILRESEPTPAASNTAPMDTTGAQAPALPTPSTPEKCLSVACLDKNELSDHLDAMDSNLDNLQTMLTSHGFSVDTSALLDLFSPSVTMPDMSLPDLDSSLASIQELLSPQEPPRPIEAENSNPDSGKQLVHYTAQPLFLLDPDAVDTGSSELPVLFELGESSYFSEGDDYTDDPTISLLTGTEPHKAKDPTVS
In words: inhibition of MG132-induced HSE-luciferase signal, confirmation, cell-based, NIH3T3, luminescence, dose retest (AID 2382).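 Also: NIH3T3 fibroblasts with HSF1-driven luciferase reporter stressed by proteasome inhibitor MG132; luminescence from HSF1-driven luciferase expression after 8 hours of MG132 stress.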 It counts as functional.

Assay [3] concerns the target T2, Sentrin-specific protease 1 (Homo sapiens, UniProt Q9P0U3). In words: potency of human SENP1 inhibitors, dose response, biochemical, kinetic FRET (AID 651697). It counts as functional. The note with it: read-out: IC50_Mean.
Assay [4] deals with T2, Sentrin-specific protease 1. The assay is described as follows: Dose response confirmation of small molecule inhibitors of the catalytic domain of the SUMO protease, SENP1 in a FRET assay. The format is functional. As to conditions: read-out: IC50_Mean.
For assay [5], the target named is T3, Trace amine-associated receptor 1 (Homo sapiens, UniProt Q96RJ0). In words: Counterscreen for agonists of the human trace amine associated receptor 1 (hTAAR1): Fluorescence-based cell-based high throughput dose response assay to identify hTAAR1 agonist that also desensitize TAAR1 receptor response. The format is functional. On the technique in general: A counterscreen serves to expose hits that act by an unwanted route or on another target.

The target of assay [6] is T3, Trace amine-associated receptor 1. In words: Fluorescence-based cell-based high throughput dose response assay to identify agonists of the human trace amine associated receptor 1 (TAAR1). The format is functional.
Assay [7] in a line: cells. The format is functional, cell-based.
A short description of assay [8]: cells. It counts as functional, cell-based. The source holds these as a separate data set.
Assay [9] relates to A549. The assay is described as follows: A549 cell toxicity, dose response, cytotoxicity control, plate reader, cherry-pick samples (AID 687028). The format is functional, cell-based. As to conditions: Homo sapiens.
Assay [10] deals with Beta-lactamase (Pseudomonas aeruginosa, UniProt Q79MP6).
Assay [11] concerns the target Beta-lactamase (Salmonella choleraesuis (strain SC-B67), UniProt Q5J463).
Assay [12] addresses T4, Rac GTPase-activating protein 1 (Homo sapiens, UniProt Q9H0H5).
T4 sequence (Q9H0H5 whole entry): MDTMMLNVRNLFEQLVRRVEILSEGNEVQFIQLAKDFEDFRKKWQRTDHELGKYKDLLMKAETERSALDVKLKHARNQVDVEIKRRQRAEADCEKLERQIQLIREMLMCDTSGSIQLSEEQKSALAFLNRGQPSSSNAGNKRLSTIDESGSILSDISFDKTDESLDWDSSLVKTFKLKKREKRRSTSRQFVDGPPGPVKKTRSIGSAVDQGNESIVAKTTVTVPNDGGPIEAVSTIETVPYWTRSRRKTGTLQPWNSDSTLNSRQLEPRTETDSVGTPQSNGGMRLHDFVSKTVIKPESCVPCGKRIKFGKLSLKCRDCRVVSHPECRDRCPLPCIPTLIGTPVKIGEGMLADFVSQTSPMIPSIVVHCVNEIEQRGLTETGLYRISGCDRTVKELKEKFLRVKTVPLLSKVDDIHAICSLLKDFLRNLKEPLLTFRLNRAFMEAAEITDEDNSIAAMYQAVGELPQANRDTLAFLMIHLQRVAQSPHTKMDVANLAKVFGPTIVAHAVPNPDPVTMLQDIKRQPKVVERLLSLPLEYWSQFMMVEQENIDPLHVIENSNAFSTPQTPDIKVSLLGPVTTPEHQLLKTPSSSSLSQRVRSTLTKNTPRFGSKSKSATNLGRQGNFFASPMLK
The assay is described as follows: MgcRacGAP GTPase-activating activity inhibitors, confirmation, biochemical, ADP Hunter fluorescence, primary and confirmatory (AID 624330). The format is functional.

A short description of assay [13]: HeLa cell cytotoxicity, dose response, cytotoxicity control for MgcRacGAP inhibitor project (AID 624300). It counts as functional.
The target of assay [14] is Hepatocyte nuclear factor 4-alpha (Homo sapiens, UniProt P41235). The format is functional, cell-based.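 Also: biochemical luminescence-based dose-response counterscreen measuring inhibition of HNF4 dimerization, run alongside a screen for blockers of ABHD5–perilipin-5 interaction; split luciferase complementation of HNF4 fusion proteins in cell lysate measuring dimerization.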

SMILES strings stand for the structures. Activity calls are given as the source filed them.

T2 sequence (Q9P0U3 whole entry, the tested form may be a part): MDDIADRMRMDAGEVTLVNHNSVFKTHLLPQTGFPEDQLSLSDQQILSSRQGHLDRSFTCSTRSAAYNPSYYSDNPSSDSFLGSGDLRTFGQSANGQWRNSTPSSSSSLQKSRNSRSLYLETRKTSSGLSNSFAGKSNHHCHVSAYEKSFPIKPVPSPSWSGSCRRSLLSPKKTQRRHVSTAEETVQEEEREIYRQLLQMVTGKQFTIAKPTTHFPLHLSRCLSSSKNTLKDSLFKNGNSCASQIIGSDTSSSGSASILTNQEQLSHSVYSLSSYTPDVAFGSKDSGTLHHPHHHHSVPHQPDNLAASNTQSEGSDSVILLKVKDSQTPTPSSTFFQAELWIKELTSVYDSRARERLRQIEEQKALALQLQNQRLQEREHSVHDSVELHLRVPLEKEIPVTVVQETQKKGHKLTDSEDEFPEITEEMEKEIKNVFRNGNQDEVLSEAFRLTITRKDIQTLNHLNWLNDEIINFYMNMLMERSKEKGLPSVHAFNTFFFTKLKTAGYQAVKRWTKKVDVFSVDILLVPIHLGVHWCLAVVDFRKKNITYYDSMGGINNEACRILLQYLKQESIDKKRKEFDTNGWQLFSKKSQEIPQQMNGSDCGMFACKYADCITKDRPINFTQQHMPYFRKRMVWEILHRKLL
T3 sequence (Q96RJ0 whole entry): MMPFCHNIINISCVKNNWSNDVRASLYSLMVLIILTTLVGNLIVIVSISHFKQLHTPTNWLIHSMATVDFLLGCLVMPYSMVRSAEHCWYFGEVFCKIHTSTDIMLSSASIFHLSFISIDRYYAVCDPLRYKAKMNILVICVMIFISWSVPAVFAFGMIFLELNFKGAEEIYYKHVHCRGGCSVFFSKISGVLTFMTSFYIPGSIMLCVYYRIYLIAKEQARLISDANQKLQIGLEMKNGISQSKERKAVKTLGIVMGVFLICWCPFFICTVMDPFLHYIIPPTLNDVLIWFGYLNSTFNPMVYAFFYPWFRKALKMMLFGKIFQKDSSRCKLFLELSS
Chain of Beta-lactamase (Salmonella choleraesuis (strain SC-B67), UniProt Q5J463) (Q5J463 whole entry): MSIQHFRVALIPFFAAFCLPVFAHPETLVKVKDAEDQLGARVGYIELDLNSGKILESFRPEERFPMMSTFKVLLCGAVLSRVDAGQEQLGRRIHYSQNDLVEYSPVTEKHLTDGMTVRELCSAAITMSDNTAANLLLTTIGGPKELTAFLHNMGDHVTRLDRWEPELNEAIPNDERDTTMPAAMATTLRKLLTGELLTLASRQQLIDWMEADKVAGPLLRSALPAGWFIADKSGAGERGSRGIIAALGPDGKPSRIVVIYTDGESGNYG
Chain of Hepatocyte nuclear factor 4-alpha (P41235 whole entry, the tested form may be a part): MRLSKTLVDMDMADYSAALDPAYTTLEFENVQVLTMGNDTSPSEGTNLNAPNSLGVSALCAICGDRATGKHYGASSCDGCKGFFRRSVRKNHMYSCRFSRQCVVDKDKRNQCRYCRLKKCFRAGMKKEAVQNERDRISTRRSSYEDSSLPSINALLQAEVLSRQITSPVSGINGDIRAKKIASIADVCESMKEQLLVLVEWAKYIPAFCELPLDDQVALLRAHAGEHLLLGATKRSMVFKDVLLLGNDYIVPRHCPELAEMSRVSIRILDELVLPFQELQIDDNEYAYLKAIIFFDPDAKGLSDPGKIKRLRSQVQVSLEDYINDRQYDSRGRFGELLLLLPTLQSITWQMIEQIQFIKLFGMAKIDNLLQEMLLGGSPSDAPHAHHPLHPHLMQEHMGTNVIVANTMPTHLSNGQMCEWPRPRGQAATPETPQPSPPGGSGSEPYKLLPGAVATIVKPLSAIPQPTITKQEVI
Chain of Beta-lactamase (Pseudomonas aeruginosa, UniProt Q79MP6) (Q79MP6 whole entry): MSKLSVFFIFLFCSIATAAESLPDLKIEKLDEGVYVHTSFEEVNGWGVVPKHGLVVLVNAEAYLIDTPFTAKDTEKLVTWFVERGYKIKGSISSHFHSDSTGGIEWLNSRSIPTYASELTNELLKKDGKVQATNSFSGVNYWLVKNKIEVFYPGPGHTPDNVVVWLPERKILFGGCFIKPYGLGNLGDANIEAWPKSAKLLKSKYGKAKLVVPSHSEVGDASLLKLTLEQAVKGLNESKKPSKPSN
Chain of Mitochondrial peptide methionine sulfoxide reductase (P54149 whole entry): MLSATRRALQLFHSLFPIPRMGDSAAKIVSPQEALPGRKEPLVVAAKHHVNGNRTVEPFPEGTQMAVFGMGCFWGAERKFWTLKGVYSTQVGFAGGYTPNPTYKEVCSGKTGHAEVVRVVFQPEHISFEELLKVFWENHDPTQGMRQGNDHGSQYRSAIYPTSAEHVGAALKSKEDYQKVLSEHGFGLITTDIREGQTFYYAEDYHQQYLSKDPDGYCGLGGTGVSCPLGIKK

Usually EC50 stands for the midpoint of the concentration-response curve. `CCCCc1[nH]nc2c1/C(=N/OCC)CC(C)(C)C2`: the IC50 in [1] was 155 µM (inactive). Besides, the EC50 in assay [2] was > 195 µM (not active).

`O=C1C=C(Nc2ccc(Cl)cc2)C(=O)N1c1ccc(Cl)cc1`: the IC50 in assay [3] is 21 µM (inactive); in assay [4] it was 12.5 µM (active).

`O=C(O)C1CCCCC1C(=O)NCCc1cccc(Cl)c1` (centres undefined): the IC50 in [5] and in [7] was > 29.9 µM (inactive) in each case. The EC50 in assay [6] was 2.5 µM (active); in assay [8], > 29.9 µM (inactive).

As usually defined, the AC50 is the concentration giving half of the maximal activity seen. In the case of `C[C@@H]1CCCCO[C@H](CN(C)Cc2ccc(Cl)c(Cl)c2)[C@H](C)CN([C@@H](C)CO)C(=O)c2cc(NC(=O)c3ccccc3)ccc2O1`, in [9], the AC50 was 31.5 µM (active).

On to `CC(C)C(CCN1C(=O)c2ccccc2C1=O)c1ccco1` (centres undefined), for which the IC50 was 36.8 µM (inactive) in assay [10] and > 59.6 µM (inactive) in [11].

For orientation: CC50 means the concentration that lowers cell viability or growth by half. For the compound `Cn1c(-c2ccc3c(c2)OCO3)cnc1NCc1ccccc1Cl`, the IC50 in assay [12] is 72 µM (active). Besides, the CC50 in [13] is 100 µM (active).

For `O=C(Nc1ccc2c(c1)OCCO2)C(c1ccccc1F)n1c(=O)c(-c2ccco2)nc2ccccc21` (centres undefined), the IC50 in assay [14] is 16.2 µM (inactive).
